We go through four compounds from publication PMC7026418, “The kinase polypharmacology landscape of clinical PARP inhibitors” (Scientific Reports, 2020).

Holding throughout (test): biochemical
What all share (design): DiscoveRx KINOMEscan active site-directed competition binding; percent of control kinase bound to immobilised ligand

Assay [1] concerns the target PIK3CA(E545K) (Homo sapiens, UniProt P42336, E545K).
The target in assay [2] is TNIK (Homo sapiens, UniProt Q9UKE5).
Assay [3] addresses PRKCH (Homo sapiens, UniProt P24723).
The target of assay [4] is BLK (Homo sapiens, UniProt P51451).
Assay [5] addresses T1, GRK7 (Homo sapiens, UniProt Q8WTQ7).
T1 sequence (Q8WTQ7 1-553): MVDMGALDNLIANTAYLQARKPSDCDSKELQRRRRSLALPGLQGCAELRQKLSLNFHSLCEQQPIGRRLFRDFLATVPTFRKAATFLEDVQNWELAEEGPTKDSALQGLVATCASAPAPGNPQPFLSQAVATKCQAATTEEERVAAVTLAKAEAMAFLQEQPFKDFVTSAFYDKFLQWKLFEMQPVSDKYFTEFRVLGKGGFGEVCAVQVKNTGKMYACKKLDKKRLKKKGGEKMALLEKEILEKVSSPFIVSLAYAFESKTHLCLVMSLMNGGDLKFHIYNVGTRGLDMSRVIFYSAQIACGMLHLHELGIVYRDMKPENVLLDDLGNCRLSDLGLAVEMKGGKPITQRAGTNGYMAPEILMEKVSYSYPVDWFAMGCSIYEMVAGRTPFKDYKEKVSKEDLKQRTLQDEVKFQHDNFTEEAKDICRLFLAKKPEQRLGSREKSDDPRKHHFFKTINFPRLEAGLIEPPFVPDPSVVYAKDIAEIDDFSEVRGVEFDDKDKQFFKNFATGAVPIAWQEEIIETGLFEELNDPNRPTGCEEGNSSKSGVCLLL

Assay [6] addresses T2, EPHB1 (Homo sapiens, UniProt P54762).
T2 sequence (P54762 1-984): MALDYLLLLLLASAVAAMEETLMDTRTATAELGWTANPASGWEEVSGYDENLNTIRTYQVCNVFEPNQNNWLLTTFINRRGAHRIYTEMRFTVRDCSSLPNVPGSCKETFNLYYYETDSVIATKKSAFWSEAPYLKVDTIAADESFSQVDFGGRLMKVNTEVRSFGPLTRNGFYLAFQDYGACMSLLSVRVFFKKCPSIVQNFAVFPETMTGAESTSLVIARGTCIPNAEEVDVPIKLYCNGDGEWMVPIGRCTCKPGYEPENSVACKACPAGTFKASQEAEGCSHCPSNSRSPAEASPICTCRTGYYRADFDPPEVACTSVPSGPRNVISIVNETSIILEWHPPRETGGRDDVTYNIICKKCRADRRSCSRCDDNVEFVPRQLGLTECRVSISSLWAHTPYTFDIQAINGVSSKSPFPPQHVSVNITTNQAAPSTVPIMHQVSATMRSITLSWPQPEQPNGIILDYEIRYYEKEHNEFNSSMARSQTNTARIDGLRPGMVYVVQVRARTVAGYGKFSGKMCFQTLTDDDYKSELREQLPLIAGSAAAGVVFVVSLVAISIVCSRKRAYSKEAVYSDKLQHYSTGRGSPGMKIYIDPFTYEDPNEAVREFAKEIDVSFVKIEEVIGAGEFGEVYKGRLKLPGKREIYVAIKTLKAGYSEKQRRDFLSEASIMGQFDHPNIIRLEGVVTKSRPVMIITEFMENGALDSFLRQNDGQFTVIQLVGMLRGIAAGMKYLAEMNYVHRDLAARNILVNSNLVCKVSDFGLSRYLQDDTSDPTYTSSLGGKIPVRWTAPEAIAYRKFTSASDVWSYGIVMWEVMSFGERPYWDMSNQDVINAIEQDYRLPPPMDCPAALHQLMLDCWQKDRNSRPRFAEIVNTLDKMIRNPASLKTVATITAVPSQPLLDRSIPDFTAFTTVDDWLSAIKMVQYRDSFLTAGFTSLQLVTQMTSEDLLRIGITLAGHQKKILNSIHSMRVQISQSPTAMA

Assay [7] concerns the target SBK1 (Homo sapiens, UniProt Q52WX2).
Assay [8] concerns the target T3, DCAMKL3 (Homo sapiens, UniProt Q9C098).
T3 construct: gene DCLK3
T3 sequence (Q9C098 1-648): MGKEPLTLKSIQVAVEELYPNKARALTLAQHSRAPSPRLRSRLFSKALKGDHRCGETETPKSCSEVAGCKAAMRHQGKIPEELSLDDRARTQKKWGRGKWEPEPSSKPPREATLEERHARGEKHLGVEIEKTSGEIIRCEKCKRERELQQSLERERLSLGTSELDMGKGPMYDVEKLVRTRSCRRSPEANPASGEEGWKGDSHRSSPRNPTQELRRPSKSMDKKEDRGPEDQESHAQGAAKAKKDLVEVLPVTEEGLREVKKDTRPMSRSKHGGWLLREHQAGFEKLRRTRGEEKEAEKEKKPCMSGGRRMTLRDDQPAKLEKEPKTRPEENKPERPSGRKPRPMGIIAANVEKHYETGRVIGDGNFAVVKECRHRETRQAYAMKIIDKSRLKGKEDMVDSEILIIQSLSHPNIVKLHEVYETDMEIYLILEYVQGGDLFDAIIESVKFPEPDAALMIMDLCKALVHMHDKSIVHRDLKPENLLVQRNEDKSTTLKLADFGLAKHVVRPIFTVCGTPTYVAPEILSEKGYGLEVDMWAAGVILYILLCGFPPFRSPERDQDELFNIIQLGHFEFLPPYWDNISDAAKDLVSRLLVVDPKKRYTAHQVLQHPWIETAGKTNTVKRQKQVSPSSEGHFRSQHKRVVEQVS

The mark [9] stands for this setting: read-out: Niraparib (MK-4827) / %Ctrl @ 10000nM.
The mark [10] stands for this setting: read-out: Talazoparib (BMN 673) / %Ctrl @ 10000nM.
The mark [11] stands for this setting: read-out: Rucaparib / %Ctrl @ 10000nM, binding competition, % of control.
The mark [12] stands for this setting: read-out: Olaparib / %Ctrl @ 10000nM.

Molecules are shown by their SMILES. Where two headings read alike, the source gives them in different places.

Chain of PRKCH (P24723 whole entry): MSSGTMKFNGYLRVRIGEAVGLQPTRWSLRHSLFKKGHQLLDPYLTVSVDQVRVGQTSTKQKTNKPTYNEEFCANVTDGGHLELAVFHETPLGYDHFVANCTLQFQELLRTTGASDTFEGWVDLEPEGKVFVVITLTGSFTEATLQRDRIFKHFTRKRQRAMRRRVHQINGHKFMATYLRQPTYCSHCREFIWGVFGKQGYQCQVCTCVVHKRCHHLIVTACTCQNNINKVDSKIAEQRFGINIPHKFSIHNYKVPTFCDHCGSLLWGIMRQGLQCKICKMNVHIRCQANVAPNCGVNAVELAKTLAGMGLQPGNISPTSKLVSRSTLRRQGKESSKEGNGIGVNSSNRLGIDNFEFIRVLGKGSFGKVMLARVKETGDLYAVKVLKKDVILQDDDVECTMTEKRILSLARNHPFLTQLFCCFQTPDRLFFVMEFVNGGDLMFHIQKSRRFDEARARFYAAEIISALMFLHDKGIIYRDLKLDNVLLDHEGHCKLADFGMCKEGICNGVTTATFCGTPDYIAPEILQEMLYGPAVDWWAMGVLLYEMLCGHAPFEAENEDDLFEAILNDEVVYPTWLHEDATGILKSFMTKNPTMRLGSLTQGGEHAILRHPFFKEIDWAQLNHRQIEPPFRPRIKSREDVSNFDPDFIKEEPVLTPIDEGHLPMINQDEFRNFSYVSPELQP
Chain of TNIK (Q9UKE5 whole entry): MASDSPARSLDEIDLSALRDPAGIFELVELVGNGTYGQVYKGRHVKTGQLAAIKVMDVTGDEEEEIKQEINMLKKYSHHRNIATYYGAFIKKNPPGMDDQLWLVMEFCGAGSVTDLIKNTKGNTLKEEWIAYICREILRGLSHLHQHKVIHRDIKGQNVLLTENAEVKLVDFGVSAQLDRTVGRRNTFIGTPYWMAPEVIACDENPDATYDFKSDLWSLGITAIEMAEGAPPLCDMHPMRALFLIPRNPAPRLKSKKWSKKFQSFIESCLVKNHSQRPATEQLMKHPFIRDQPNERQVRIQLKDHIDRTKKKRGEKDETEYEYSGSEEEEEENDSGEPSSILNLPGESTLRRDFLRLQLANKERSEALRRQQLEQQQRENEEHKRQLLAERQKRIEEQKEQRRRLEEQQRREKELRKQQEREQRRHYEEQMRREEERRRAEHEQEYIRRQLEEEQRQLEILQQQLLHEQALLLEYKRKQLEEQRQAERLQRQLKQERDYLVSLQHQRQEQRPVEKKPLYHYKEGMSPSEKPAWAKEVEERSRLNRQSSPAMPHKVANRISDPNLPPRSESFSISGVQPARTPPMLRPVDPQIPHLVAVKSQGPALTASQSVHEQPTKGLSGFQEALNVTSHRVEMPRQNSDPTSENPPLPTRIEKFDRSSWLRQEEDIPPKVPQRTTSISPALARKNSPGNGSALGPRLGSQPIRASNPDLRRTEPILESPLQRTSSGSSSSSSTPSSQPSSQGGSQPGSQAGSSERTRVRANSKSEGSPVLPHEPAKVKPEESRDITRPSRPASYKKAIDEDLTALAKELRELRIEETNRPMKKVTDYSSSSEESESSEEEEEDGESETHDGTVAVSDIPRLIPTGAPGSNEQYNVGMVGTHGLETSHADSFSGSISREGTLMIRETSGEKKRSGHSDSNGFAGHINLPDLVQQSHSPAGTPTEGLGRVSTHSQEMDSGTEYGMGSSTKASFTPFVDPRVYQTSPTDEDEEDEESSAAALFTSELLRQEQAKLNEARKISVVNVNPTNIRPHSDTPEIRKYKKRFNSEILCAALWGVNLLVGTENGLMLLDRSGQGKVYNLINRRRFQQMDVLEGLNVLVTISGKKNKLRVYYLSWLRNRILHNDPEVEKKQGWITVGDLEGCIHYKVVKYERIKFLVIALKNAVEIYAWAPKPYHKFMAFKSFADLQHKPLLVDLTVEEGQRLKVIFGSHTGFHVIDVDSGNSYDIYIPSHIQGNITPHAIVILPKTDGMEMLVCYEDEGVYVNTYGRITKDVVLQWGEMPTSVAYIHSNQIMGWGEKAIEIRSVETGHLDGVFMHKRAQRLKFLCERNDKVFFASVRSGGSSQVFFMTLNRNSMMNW
Chain of PIK3CA(E545K) (P42336 whole entry E545K): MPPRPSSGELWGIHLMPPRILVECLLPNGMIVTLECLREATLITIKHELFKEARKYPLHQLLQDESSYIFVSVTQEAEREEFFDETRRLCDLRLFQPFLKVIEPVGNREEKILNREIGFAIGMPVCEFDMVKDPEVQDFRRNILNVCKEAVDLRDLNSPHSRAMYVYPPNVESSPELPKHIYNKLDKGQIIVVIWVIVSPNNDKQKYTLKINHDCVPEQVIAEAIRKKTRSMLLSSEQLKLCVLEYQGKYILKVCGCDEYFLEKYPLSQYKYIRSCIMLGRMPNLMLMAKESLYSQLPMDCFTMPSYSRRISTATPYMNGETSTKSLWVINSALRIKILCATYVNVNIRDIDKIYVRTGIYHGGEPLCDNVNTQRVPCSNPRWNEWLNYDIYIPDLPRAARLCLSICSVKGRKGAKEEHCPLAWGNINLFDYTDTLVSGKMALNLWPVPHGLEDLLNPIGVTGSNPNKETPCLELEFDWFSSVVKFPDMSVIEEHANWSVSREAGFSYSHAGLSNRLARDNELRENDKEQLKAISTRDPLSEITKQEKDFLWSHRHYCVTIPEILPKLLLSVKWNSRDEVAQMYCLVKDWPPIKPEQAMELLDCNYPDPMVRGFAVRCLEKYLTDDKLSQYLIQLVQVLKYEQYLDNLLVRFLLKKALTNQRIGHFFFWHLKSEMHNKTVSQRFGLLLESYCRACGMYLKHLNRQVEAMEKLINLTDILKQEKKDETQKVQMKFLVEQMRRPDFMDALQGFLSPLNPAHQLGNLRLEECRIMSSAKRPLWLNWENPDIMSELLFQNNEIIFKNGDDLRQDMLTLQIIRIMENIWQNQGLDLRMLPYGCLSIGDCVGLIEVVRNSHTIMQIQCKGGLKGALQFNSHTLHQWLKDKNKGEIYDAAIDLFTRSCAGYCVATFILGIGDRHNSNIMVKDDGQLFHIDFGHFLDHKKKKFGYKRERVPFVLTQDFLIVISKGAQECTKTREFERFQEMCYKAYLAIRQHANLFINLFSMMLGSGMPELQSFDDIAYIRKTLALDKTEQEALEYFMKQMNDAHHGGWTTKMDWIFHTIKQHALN
Chain of BLK (P51451 whole entry): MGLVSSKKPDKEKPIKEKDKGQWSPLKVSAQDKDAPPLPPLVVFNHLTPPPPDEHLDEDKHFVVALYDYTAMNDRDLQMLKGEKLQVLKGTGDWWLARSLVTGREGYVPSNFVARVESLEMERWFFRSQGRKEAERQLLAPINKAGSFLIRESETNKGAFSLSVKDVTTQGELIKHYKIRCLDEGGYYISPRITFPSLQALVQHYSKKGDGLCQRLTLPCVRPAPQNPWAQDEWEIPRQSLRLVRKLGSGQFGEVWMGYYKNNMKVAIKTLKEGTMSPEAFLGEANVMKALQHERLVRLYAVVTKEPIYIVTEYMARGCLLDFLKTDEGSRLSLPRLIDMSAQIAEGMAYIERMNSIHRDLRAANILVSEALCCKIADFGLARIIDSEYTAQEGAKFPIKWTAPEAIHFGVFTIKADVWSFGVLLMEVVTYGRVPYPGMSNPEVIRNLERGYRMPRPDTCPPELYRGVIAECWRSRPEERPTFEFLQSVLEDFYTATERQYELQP
Chain of SBK1 (Q52WX2 whole entry): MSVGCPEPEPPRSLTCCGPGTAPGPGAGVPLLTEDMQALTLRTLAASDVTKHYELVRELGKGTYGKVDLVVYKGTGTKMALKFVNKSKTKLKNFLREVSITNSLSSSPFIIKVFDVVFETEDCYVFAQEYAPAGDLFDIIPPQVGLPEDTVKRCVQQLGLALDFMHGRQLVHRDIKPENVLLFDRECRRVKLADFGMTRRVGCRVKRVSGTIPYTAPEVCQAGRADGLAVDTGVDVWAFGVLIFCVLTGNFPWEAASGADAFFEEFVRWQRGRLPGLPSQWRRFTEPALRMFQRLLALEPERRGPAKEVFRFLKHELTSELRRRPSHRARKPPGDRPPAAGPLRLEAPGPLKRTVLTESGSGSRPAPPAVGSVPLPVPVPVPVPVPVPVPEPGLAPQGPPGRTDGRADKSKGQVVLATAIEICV

`NC(=O)c1cccc2cn(-c3ccc([C@@H]4CCCNC4)cc3)nc12` [Niraparib]: the percent of control binding at 10 µM turned out to be 95% in assay [1] (setting [9]); 86% in assay [2] (setting [9]); 85% in assay [3] (setting [9]); 72% in assay [4] (setting [9]); 88% in assay [5] (setting [9]); 76% in assay [6] (setting [9]). In addition, the percent of control binding at 10 µM in assay [7] (setting [9]) amounted to 83%; in assay [8] (setting [9]) it was 85%.

With `Cn1ncnc1[C@H]1c2n[nH]c(=O)c3cc(F)cc(c23)N[C@@H]1c1ccc(F)cc1` [Talazoparib], the percent of control binding at 10 µM came out at 56% in assay [1] (setting [10]); 98% in assay [2] (setting [10]); 98% in assay [3] (setting [10]); 99% in assay [4] (setting [10]); 100% in assay [5] (setting [10]); 94% in assay [6] (setting [10]). The percent of control binding at 10 µM was determined as 96% in assay [7] (setting [10]) and 100% in assay [8] (setting [10]).

Take `CNCc1ccc(-c2[nH]c3cc(F)cc4c3c2CCNC4=O)cc1` [Rucaparib]: the percent of control binding at 10 µM came out at 79% in assay [1] (setting [11]); 22% in assay [2] (setting [11]); 94% in assay [3] (setting [11]); 91% in assay [4] (setting [11]); 48% in assay [5] (setting [11]); 100% in assay [6] (setting [11]). Besides, the percent of control binding at 10 µM is 65% in assay [7] (setting [11]) and 44% in assay [8] (setting [11]).

Regarding `O=C(c1cc(Cc2n[nH]c(=O)c3ccccc23)ccc1F)N1CCN(C(=O)C2CC2)CC1` [Olaparib], the percent of control binding at 10 µM was 86% in assay [1] (setting [12]); 100% in assay [2] (setting [12]); 94% in assay [3] (setting [12]); 90% in assay [4] (setting [12]); 85% in assay [5] (setting [12]); 99% in assay [6] (setting [12]). The percent of control binding at 10 µM in assay [7] (setting [12]) was determined as 95%; in assay [8] (setting [12]), 88%.
